The values that follow are results of earlier work, collected in article PMC10330721, “Chemo-enzymatic synthesis and biological activity evaluation of propenylbenzene derivatives” (Frontiers in Microbiology, 2023).

The structures appear in SMILES notation.

The test system of series [1] is human hepatocellular carcinoma HepG2 cells. Further details: method as in Yoo et al., 2005; Song et al., 2014, 2020. As to conditions: ref Yoo et al., 2005; Song et al., 2014, 2020; cited from earlier work.
Series [2] has as its system human colon carcinoma Caco-2 cell line. The following applies: ref Lea et al., 2016; Padhy et al., 2022; cited from earlier work.

As for `C=CCc1ccc(O)c(OC)c1` [eugenol], the “Effect on growth of HepG2 cells (in words)” value in series [1] is reported as “inhibited the growth”. Further, the “Apoptosis in Caco-2 cell line (in words)” value in series [2] is reported as “induced apoptosis”.
